These results are taken from patent US10202339B2, “Therapeutic compounds and compositions” (AGIOS PHARMACEUTICALS, INC., priority 2012, dated 2019).

Sequence of IDH1 R132H (O75874 whole entry R132H): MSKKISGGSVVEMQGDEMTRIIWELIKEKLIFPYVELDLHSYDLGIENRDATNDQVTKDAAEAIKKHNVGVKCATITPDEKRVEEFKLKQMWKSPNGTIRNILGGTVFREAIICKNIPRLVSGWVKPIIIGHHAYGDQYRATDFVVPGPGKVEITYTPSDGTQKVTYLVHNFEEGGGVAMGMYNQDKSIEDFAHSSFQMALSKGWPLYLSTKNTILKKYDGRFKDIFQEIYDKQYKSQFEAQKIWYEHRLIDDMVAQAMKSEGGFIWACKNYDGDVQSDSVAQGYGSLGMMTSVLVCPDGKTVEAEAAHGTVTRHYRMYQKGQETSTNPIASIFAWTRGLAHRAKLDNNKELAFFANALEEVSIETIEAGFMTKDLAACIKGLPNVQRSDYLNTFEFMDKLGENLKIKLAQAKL
Sequence of IDH2 R140Q (P48735 40-452 R140Q): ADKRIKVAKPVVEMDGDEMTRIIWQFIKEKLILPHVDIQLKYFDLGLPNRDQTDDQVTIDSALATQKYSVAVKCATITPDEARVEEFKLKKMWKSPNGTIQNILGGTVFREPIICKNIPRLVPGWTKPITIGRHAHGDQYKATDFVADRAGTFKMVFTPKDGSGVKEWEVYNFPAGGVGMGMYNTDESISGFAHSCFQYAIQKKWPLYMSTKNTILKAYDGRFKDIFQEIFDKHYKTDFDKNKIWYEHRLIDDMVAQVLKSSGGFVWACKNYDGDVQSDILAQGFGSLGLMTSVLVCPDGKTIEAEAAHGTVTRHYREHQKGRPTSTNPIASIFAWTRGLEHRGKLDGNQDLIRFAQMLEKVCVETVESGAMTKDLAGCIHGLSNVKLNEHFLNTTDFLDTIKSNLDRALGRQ

One assay concerns the target IDH1 R132H (Homo sapiens (Human), UniProt O75874, R132H). In words: In vitro assay for IDH1m (R132H) inhibitors, NADPH depletion with resazurin/resorufin detection. Particulars: IDH1 R132H enzyme, 50 minutes at room temperature; read-out: IDH R132H IC50. The format is biochemical. As to the method: Assays were conducted in a volume of 76 μl assay buffer (150 mM NaCl, 10 mM MgCl2, 20 mM Tris pH 7.5, 0.03% bovine serum albumin) as follows in a standard 384-well plate: To 25 ul of substrate mix (8 uM NADPH, 2 mM aKG), 1 μl of test compound was added in DMSO. The plate was centrifuged briefly, and then 25 μl of enzyme mix was added (0.2 μg/ml IDH1 R132H) followed by a brief centrifugation and shake at 100 RPM. The reaction was incubated for 50 minutes at room temperature, then 25 μl of detection mix (30 μM resazurin, […]) was added and the mixture further incubated for 5 minutes at room temperature. The conversion of resazurin to resorufin was detected by fluorescent spectroscopy at Ex544 Em590 c/o 590.
Representative compounds of formula (I) set forth in Tables 1 and 2 were tested in this assay and the results are set forth below in Table 4.
`Cc1ccc(NC(=O)Nc2ccc(Cl)cc2)cc1S(=O)(=O)Nc1ccccc1` [Compound 205]: the IC50 lay in the range of 1000 to 10000 nM.
Still for that read-out and setting: for `Cc1ccc(NC(=O)Nc2cccc(C(F)(F)F)c2)cc1S(=O)(=O)Nc1ccccc1` [Compound 206, 2-methyl-N-phenyl-5-(3-(3-(trifluoromethyl)phenyl)ureido)benzenesulfonamide] the value was 1000 to 10000 nM; for `Cc1ccc(NC(=O)Nc2ccc(C(F)(F)F)cc2)cc1S(=O)(=O)Nc1ccccc1` [Compound 207, 2-methyl-N-phenyl-5-(3-(4-(trifluoromethyl)phenyl)ureido)benzenesulfonamide], 1000 to 10000 nM.
On the same count and under the same terms, for `Cc1ccc(NC(=O)Nc2ccc(OC(F)(F)F)cc2)cc1S(=O)(=O)Nc1ccccc1` [Compound 208] the value was 1000 to 10000 nM; for `Cc1ccc(NC(=O)Nc2ccc(F)c(Cl)c2)cc1S(=O)(=O)Nc1ccccc1` [Compound 209], 1000 to 10000 nM.
Same read-out and setting: for `Cc1cc(C)cc(NC(=O)Nc2ccc(C)c(S(=O)(=O)Nc3ccccc3)c2)c1` [Compound 210] the value was 1000 to 10000 nM; for `C#Cc1cccc(NC(=O)Nc2ccc(C)c(S(=O)(=O)Nc3ccccc3)c2)c1` [Compound 211], 1000 to 10000 nM.
For the compound `Cc1ccc(NC(=O)Nc2cccc(Oc3ccccc3)c2)cc1S(=O)(=O)Nc1ccccc1` [Compound 212], the IC50 fell in the range of 1000 to 10000 nM.
The same measure, in the same setting: for `Cc1ccc(NC(=O)Nc2ccccc2)cc1S(=O)(=O)Nc1ccc(Cl)cc1` [Compound 213] the value was 1000 to 10000 nM; for `Cc1ccc(NC(=O)Nc2ccccc2Cl)cc1S(=O)(=O)Nc1ccc(Cl)cc1` [Compound 214], 1000 to 10000 nM; for `Cc1ccc(NC(=O)Nc2cccc(Cl)c2)cc1S(=O)(=O)Nc1ccc(Cl)cc1` [Compound 215], 1000 to 10000 nM.
Same read-out and setting: next, `Cc1ccc(NC(=O)Nc2ccccc2Br)cc1S(=O)(=O)Nc1ccc(Cl)cc1` [Compound 216]: 1000 to 10000 nM; `Cc1ccc(NC(=O)Nc2ccc(Br)cc2)cc1S(=O)(=O)Nc1ccc(Cl)cc1` [Compound 217]: 1000 to 10000 nM; `Cc1ccc(NC(=O)Nc2ccccc2F)cc1S(=O)(=O)Nc1ccc(Cl)cc1` [Compound 218]: 1000 to 10000 nM.
The same measure, in the same setting: next, `Cc1ccc(NC(=O)Nc2ccc(F)cc2)cc1S(=O)(=O)Nc1ccc(Cl)cc1` [Compound 219]: 1000 to 10000 nM; `Cc1ccc(NC(=O)Nc2ccc(I)cc2)cc1S(=O)(=O)Nc1ccc(Cl)cc1` [Compound 220]: 1000 to 10000 nM; `Cc1ccc(NC(=O)Nc2cccc(C(F)(F)F)c2)cc1S(=O)(=O)Nc1ccc(Cl)cc1` [Compound 221, N-(4-chlorophenyl)-2-methyl-5-(3-(3(trifluoromethyl)phenyl)ureido)benzenesulfonamide]: 1000 to 10000 nM.
`Cc1ccc(NC(=O)Nc2ccc(C(F)(F)F)cc2)cc1S(=O)(=O)Nc1ccc(Cl)cc1` [Compound 222, N-(4-chlorophenyl)-2-methyl-5-(3-(4-(trifluoromethyl)phenyl)ureido)benzenesulfonamide]: the IC50 was 1000 to 10000 nM.
On the same count and under the same terms, next, `Cc1ccc(NC(=O)Nc2ccccc2OC(F)(F)F)cc1S(=O)(=O)Nc1ccc(Cl)cc1` [Compound 224]: 1000 to 10000 nM; `Cc1ccc(NC(=O)Nc2ccc(OC(F)(F)F)cc2)cc1S(=O)(=O)Nc1ccc(Cl)cc1` [Compound 225, N-(4-chlorophenyl)-2-methyl-5-(3-(4-(trifluoromethoxy)phenyl)ureido)benzenesulfonamide]: 1000 to 10000 nM; `Cc1ccc(NC(=O)Nc2ccc(Br)cc2Cl)cc1S(=O)(=O)Nc1ccc(Cl)cc1` [Compound 227]: 1000 to 10000 nM.

The target in another assay is IDH2 R140Q (Homo sapiens (Human), UniProt P48735, R140Q). Description: IDH2 R140Q enzymatic cofactor depletion assay (diaphorase/resazurin). The format is biochemical. The conditions noted are these: IDH2 R140Q enzyme, one hour preincubation with compound, one hour reaction; read-out: Enz R140Q. Put shortly:
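Enzyme preincubated with compound 1 h at room temperature, then reaction started with 50 μM NADPH and 6.3 mM α-KG and run 1 h at room temperature. Remaining NADPH measured by diaphorase (36 μg/ml)/resazurin (60 μM) stop mix, fluorescence read at Ex544/Em590 after 1 min.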
As for `O=C(Nc1cccc(C(F)(F)F)c1)Nc1cc(S(=O)(=O)NCC(F)(F)F)cnc1OCC1CCOC1` (stereo not shown) [Compound 201, 6-((tetrahydrofuran-3-yl)methoxy)-N-(2,2,2-trifluoroethyl)-5-(3-(3-(trifluoromethyl)phenyl)ureido)pyridine-3-sulfonamide], the IC50 fell in the range of 100 to 1000 nM.
As for `CCOc1ncc(S(=O)(=O)NCC(F)(F)F)cc1NC(=O)Nc1cc(C(F)(F)F)ccn1` [Compound 202, 6-ethoxy-N-(2,2,2-trifluoroethyl)-5-(3-(4-(trifluoromethyl)pyridine-2-yl)ureido)pyridine-3-sulfonamide], the IC50 was in the range of 100 to 1000 nM.
On the same count and under the same terms, next, `O=C(Nc1cccc(C(F)(F)F)c1)Nc1cc(S(=O)(=O)NCC(F)(F)F)cnc1N1CCOCC1` [Compound 203, 6-morpholino-N-(2,2,2-trifluoroethyl)-5-(3-(3-(trifluoromethyl)phenyl)ureido)pyridine-3-sulfonamide]: 100 to 1000 nM.
Turning to `O=C(Nc1cccc(C(F)(F)F)c1)Nc1cc(S(=O)(=O)NCC(F)(F)F)cnc1NCC1CC1` [Compound 204, 6-((cyclopropylmethyl)amino)-N-(2,2,2-trifluoroethyl)-5-(3-(3-(trifluoromethyl)phenyl)ureido)pyridine-3-sulfonamide], the IC50 was 1000 to 10000 nM.
With `O=C(Nc1cccc(S(=O)(=O)NCC(F)(F)F)c1)Nc1cc(C(F)(F)F)ccn1` [Compound 337, N-(2,2,2-trifluoroethyl)-3-(3-(4-(trifluoromethyl)pyridin-2-yl)ureido)benzenesulfonamide], the IC50 was in the range of 100 to 1000 nM.
With `C#Cc1ccc(S(=O)(=O)NCC(F)(F)F)cc1NC(=O)Nc1cccc(C(F)(F)F)c1` [Compound 338, 4-ethynyl-N-(2,2,2-trifluoroethyl)-3-(3-(3-(trifluoromethyl)phenyl)ureido)benzenesulfonamide], the IC50 was in the range of 100 to 1000 nM.
For the compound `CCc1ccc(S(=O)(=O)NCC(F)(F)F)cc1NC(=O)Nc1cccc(C(F)(F)F)c1` [Compound 339, 4-ethyl-N-(2,2,2-trifluoroethyl)-3-(3-(3-(trifluoromethyl)phenyl)ureido)benzenesulfonamide], the IC50 lay within 100 to 1000 nM.
Turning to `O=C(Nc1cccc(C(F)(F)F)c1)Nc1cc(S(=O)(=O)Nc2ccccc2)ccc1Nc1ccccc1` [Compound 340, N-phenyl-4-(phenylamino)-3-(3-(3-(trifluoromethyl)phenyl)ureido)benzenesulfonamide], the IC50 fell in the range of 1000 to 10000 nM.
For `CN(c1ccccc1)c1ccc(S(=O)(=O)Nc2ccccc2)cc1NC(=O)Nc1cccc(C(F)(F)F)c1` [Compound 341, 4-(methyl(phenyl)amino)-N-phenyl-3-(3-(3-(trifluoromethyl)phenyl)ureido)benzenesulfonamide], the IC50 fell in the range of 1000 to 10000 nM.
Still for that read-out and setting: next, `O=C(Nc1cccc(C(F)(F)F)c1)Nc1cc(S(=O)(=O)Nc2ccccc2)ccc1-n1ccnc1` [Compound 342, 4-(1H-imidazol-1-yl)-N-phenyl-3-(3-(3-(trifluoromethyl)phenyl)ureido)benzenesulfonamide]: 100 to 1000 nM; `Cc1nccn1-c1ccc(S(=O)(=O)Nc2ccccc2)cc1NC(=O)Nc1cccc(C(F)(F)F)c1` [Compound 343]: 1000 to 10000 nM.
Still for that read-out and setting: for `O=C(Nc1cccc(C(F)(F)F)c1)Nc1cc(S(=O)(=O)Nc2ccccc2)ccc1-n1cccn1` [Compound 344] the value was 1000 to 10000 nM.
On the same count and under the same terms, next, `O=C(Nc1cccc(C(F)(F)F)c1)Nc1cc(S(=O)(=O)NC2CC2)ccc1-n1ccnc1` [Compound 345, N-cyclopropyl-4-(1H-imidazol-1-yl)-3-(3-(3-(trifluoromethyl)phenyl)ureido)benzenesulfonamide]: 100 to 1000 nM; `O=C(Nc1cccc(C(F)(F)F)c1)Nc1cc(S(=O)(=O)N2CCOCC2)ccc1-n1ccnc1` [Compound 346]: 1000 to 10000 nM; `CC(C)N(C)c1ccc(S(=O)(=O)Nc2ccccc2)cc1NC(=O)Nc1cccc(C(F)(F)F)c1` [Compound 347]: 1000 to 10000 nM.
As to `O=C(Nc1cccc(C(F)(F)F)c1)Nc1cc(S(=O)(=O)NC2CC2)ccc1N1CCOCC1` [Compound 348, N-cyclopropyl-4-morpholino-3-(3-(3-(trifluoromethyl)phenyl)ureido)benzenesulfonamide], the IC50 was in the range of 1000 to 10000 nM.
The same measure, in the same setting: next, `O=C(Nc1cccc(C(F)(F)F)c1)Nc1cc(S(=O)(=O)NC2CC2)ccc1N1CCCOCC1` [Compound 349, N-cyclopropyl-4-(1,4-oxazepan-4-yl)-3-(3-(3-(trifluoromethyl)phenyl)ureido)benzenesulfonamide]: 100 to 1000 nM; `O=C(Nc1cccc(C(F)(F)F)c1)Nc1cc(S(=O)(=O)N2CCOCC2)ccc1N1CCOCC1` [Compound 350]: 1000 to 10000 nM.
On to `Cc1ccc(NC(=O)Nc2c(Cl)cccc2Cl)cc1S(=O)(=O)Nc1ccc(Cl)cc1` [Compound 352], for which the IC50 is 100 to 1000 nM.
`O=C(Nc1cccc(C(F)(F)F)c1)Nc1cc(S(=O)(=O)Nc2ccccc2)ccc1-n1ccnc1` [Compound 354]: the IC50 was 100 to 1000 nM.
Consider `O=C(Nc1cccc(C(F)(F)F)c1)Nc1cc(S(=O)(=O)NC2CC2)cnc1-n1ccnc1` [Compound 355], for which the IC50 fell in the range of 100 to 1000 nM.
On the same count and under the same terms, next, `O=C(Nc1cccc(C(F)(F)F)c1)Nc1cc(S(=O)(=O)N2CCOCC2)cnc1N1CCOCC1` [Compound 356]: 1000 to 10000 nM.
Still for that read-out and setting: next, `O=C(Nc1cccc(C(F)(F)F)c1)Nc1cc(S(=O)(=O)NC2CC2)cnc1N1CCOCC1` [Compound 357]: 1000 to 10000 nM; `O=C(Nc1cccc(C(F)(F)F)c1)Nc1cc(S(=O)(=O)NC2CC2)cnc1N1CCCOCC1` [Compound 358]: 100 to 1000 nM.
On the same count and under the same terms, for `O=C(Nc1cccc(C(F)(F)F)c1)Nc1cc(S(=O)(=O)Nc2ccccc2)ccc1-c1nccs1` [Compound 359] the value was 100 to 1000 nM.
